For the assay, the target named is human DGKα (Homo sapiens, UniProt P23743). As to the kind of experiment: biochemical.
Chain of human DGKα (P23743 whole entry): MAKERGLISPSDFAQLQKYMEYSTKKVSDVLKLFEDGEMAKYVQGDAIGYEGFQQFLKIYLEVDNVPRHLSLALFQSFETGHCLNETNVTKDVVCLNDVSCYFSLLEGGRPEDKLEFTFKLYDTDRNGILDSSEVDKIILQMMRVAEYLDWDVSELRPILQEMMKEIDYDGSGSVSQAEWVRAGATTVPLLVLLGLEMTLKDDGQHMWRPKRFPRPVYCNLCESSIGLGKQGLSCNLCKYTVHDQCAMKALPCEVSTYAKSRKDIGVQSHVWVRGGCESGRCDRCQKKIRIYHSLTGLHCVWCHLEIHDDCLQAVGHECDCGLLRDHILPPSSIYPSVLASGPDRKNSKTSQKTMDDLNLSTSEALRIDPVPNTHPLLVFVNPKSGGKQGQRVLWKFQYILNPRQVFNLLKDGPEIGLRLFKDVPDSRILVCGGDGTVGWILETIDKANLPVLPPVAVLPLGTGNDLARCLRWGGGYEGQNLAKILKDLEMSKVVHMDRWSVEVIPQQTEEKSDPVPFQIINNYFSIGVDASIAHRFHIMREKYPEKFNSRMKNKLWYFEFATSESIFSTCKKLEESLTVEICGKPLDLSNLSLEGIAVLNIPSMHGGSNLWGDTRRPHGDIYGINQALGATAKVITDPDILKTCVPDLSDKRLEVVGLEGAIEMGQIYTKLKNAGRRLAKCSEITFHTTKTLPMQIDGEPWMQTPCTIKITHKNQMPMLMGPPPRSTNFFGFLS
For orientation: IC50 means the midpoint of a concentration-inhibition curve. A lower IC50 goes with greater potency. Regarding `CCC1(C#Cc2cccc3c2OCCCN3c2nc3nnn(C)c3c3cncc(F)c23)COC1` [Example 1, 9-((3-ethyloxetan-3-yl)ethynyl)-5-(6-fluoro-1-methyl-1H-[1,2,3]triazolo[4,5-c][2,6]naphthyridin-5-yl)-2,3,4,5-tetrahydrobenzo[b][1,4]oxazepine], the 50% inhibitory concentration (IC50) was determined as 10.5 nM.
To `CCC1(C#Cc2cccc3c2COCCN3c2nc3nnn(C)c3c3cncc(F)c23)COC1` [Example 3, 6-((3-ethyloxetan-3-yl)ethynyl)-1-(6-fluoro-1-methyl-1H-[1,2,3]triazolo[4,5-c][2,6]naphthyridin-5-yl)-1,2,3,5-tetrahydrobenzo[e][1,4]oxazepine] belongs 2.73 nM; to `Cn1nnc2nc(N3CCOCc4c(C#CC5(C)COC5)cccc43)c3c(F)cncc3c21` [Example 4, 1-(6-fluoro-1-methyl-1H-[1,2,3]triazolo[4,5-c][2,6]naphthyridin-5-yl)-6-((3-methyloxetan-3-yl)ethynyl)-1,2,3,5-tetrahydrobenzo[e][1,4]oxazepine], 2.26 nM; to `Cn1nnc2nc(N3CCCc4c(C#CC(C)(C)C#N)cccc43)c3c(F)cncc3c21` [Example 5, 4-(1-(6-fluoro-1-methyl-1H-[1,2,3]triazolo[4,5-c][2,6]naphthyridin-5-yl)-1,2,3,4-tetrahydroquinolin-5-yl)-2,2-dimethylbut-3-ynenitrile], 20.8 nM.
Take `Cn1nnc2nc(N3CCCOc4c(C#CC5(C)CC5)cccc43)c3c(F)cncc3c21` [Example 7, 5-(6-fluoro-1-methyl-1H-[1,2,3]triazolo[4,5-c][2,6]naphthyridin-5-yl)-9-((1-methylcyclopropyl)ethynyl)-2,3,4,5-tetrahydrobenzo[b][1,4]oxazepine]: the IC50 turned out to be 11.5 nM.
To `Cn1nnc2nc(N3CCCOc4c(C#CC(C)(C)C#N)cccc43)c3c(F)cncc3c21` [Example 8, 4-(5-(6-fluoro-1-methyl-1H-[1,2,3]triazolo[4,5-c][2,6]naphthyridin-5-yl)-2,3,4,5-tetrahydrobenzo[b][1,4]oxazepin-9-yl)-2,2-dimethylbut-3-ynenitrile] belongs 10.2 nM; to `Cn1nnc2nc(N3CCCOc4c(C#CC(C)(C)O)cccc43)c3c(F)cncc3c21` [Example 10, 4-(5-(6-fluoro-1-methyl-1H-[1,2,3]triazolo[4,5-c][2,6]naphthyridin-5-yl)-2,3,4,5-tetrahydrobenzo[b][1,4]oxazepin-9-yl)-2-methylbut-3-yn-2-ol], 13 nM.
In the case of `Cn1nnc2nc(N3CCOCc4c(C#CC5(C)CC5)cccc43)c3c(F)cncc3c21` [Example 11, 1-(6-fluoro-1-methyl-1H-[1,2,3]triazolo[4,5-c][2,6]naphthyridin-5-yl)-6-((1-methylcyclopropyl)ethynyl)-1,2,3,5-tetrahydrobenzo[e][1,4]oxazepine], half-maximal inhibition (IC50) required 8.59 nM.
For `Cn1nnc2nc(N3CCCCc4c(C#CC(C)(C)O)cccc43)c3c(F)cncc3c21` [Example 15, 4-(1-(6-fluoro-1-methyl-1H-[1,2,3]triazolo[4,5-c][2,6]naphthyridin-5-yl)-2,3,4,5-tetrahydro-1H-benzo[b]azepin-6-yl)-2-methylbut-3-yn-2-ol], the IC50 stood at 5.42 nM.
With `Cn1nnc2nc(N(CC(F)F)c3cc(F)cc(C#CC(C)(C)C#N)c3)c3c(F)cncc3c21` [Example 16, 4-(3-((2,2-difluoroethyl)(6-fluoro-1-methyl-1H-[1,2,3]triazolo[4,5-c][2,6]naphthyridin-5-yl)amino)-5-fluorophenyl)-2,2-dimethylbut-3-ynenitrile], half-maximal inhibition (IC50) required 42.2 nM.
With `Cn1nnc2nc(N(CC(F)F)c3ccnc(C#CC4(C)CC4)c3)c3c(F)c(F)ccc3c21` [Example 17, N-(2,2-difluoroethyl)-6,7-difluoro-1-methyl-N-(2-((1-methylcyclopropyl)ethynyl)pyridin-4-yl)-1H-[1,2,3]triazolo[4,5-c]isoquinolin-5-amine], the IC50 amounted to 61.8 nM.
To `Cn1nnc2nc(N(CC(F)F)c3ccnc(C#CC4(C)CC4)c3)c3c(F)cncc3c21` [Example 19, N-(2,2-difluoroethyl)-6-fluoro-1-methyl-N-(2-((1-methylcyclopropyl)ethynyl)pyridin-4-yl)-1H-[1,2,3]triazolo[4,5-c][2,6]naphthyridin-5-amine] belongs 31.4 nM; to `Cn1nnc2nc(N(CC(F)F)c3ccnc(C#CC(C)(C)C#N)c3)c3c(F)cncc3c21` [Example 20, 4-(4-((2,2-difluoroethyl)(6-fluoro-1-methyl-1H-[1,2,3]triazolo[4,5-c][2,6]naphthyridin-5-yl)amino)pyridin-2-yl)-2,2-dimethylbut-3-ynenitrile], 109 nM; to `Cn1nnc2nc(N3CCCc4c(C#CC5(C)CC5)cncc43)c3cc(F)ccc3c21` [Example 22, 7-fluoro-1-methyl-5-(5-((1-methylcyclopropyl)ethynyl)-3,4-dihydro-1,7-naphthyridin-1(2H)-yl)-1H-[1,2,3]triazolo[4,5-c]isoquinoline], 124 nM.
Take `Cn1nnc2nc(N(CC(F)F)c3ccnc(C#CC4(C)CC4)c3)c3c(F)cccc3c21` [Example 24, N-(2,2-difluoroethyl)-6-fluoro-1-methyl-N-(2-((1-methylcyclopropyl)ethynyl)pyridin-4-yl)-1H-[1,2,3]triazolo[4,5-c]isoquinolin-5-amine]: it took 54.5 nM to reach half-maximal inhibition (IC50).
To `Cn1nnc2nc(N(CC(F)F)c3ccnc(C#CC4(C)CC4)c3)c3cc(F)ccc3c21` [Example 25, N-(2,2-difluoroethyl)-7-fluoro-1-methyl-N-(2-((1-methylcyclopropyl)ethynyl)pyridin-4-yl)-1H-[1,2,3]triazolo[4,5-c]isoquinolin-5-amine] belongs 39.2 nM.
To `Cn1nnc2nc(N(CC(F)F)c3ccnc(C#CC(C)(C)O)c3)c3cc(F)ccc3c21` [Example 27, 4-(4-((2,2-difluoroethyl)(7-fluoro-1-methyl-1H-[1,2,3]triazolo[4,5-c]isoquinolin-5-yl)amino)pyridin-2-yl)-2-methylbut-3-yn-2-ol] belongs 143 nM.
To `Cn1nnc2nc(N3CCCc4c(C#CC(C)(C)C#N)cncc43)c3c(F)cccc3c21` [Example 30, 4-(1-(6-fluoro-1-methyl-1H-[1,2,3]triazolo[4,5-c]isoquinolin-5-yl)-1,2,3,4-tetrahydro-1,7-naphthyridin-5-yl)-2,2-dimethylbut-3-ynenitrile] belongs 160 nM; to `Cn1nnc2nc(N3CCCc4c(C#CC(C)(C)O)cncc43)c3c(F)cncc3c21` [Example 32, 4-(1-(6-fluoro-1-methyl-1H-[1,2,3]triazolo[4,5-c][2,6]naphthyridin-5-yl)-1,2,3,4-tetrahydro-1,7-naphthyridin-5-yl)-2-methylbut-3-yn-2-ol], 93 nM; to `Cn1nnc2nc(N(CC(F)F)c3cc(F)cc(C#CC(C)(C)O)c3)c3cc(F)cnc3c21` [Example 34, 4-(3-((2,2-difluoroethyl)(7-fluoro-1-methyl-1H-[1,2,3]triazolo[4,5-h][1,6]naphthyridin-5-yl)amino)-5-fluorophenyl)-2-methylbut-3-yn-2-ol], 26.1 nM.
As to `Cn1nnc2nc(N3CCCc4c(C#CC(C)(C)C#N)cccc43)c3cc(F)cnc3c21` [Example 35, 4-(1-(7-fluoro-1-methyl-1H-[1,2,3]triazolo[4,5-h][1,6]naphthyridin-5-yl)-1,2,3,4-tetrahydroquinolin-5-yl)-2,2-dimethylbut-3-ynenitrile], the half-inhibitory concentration (IC50) came out at 50.7 nM.
To `Cn1nnc2nc(N(CC(F)F)c3cc(F)cc(C#CC4(C(F)(F)F)CC4)c3)c3c(F)cncc3c21` [Example 38, N-(2,2-difluoroethyl)-6-fluoro-N-(3-fluoro-5-((1-(trifluoromethyl)cyclopropyl)ethynyl)phenyl)-1-methyl-1H-[1,2,3]triazolo[4,5-c][2,6]naphthyridin-5-amine] belongs 51.6 nM; to `Cn1nnc2nc(N3CCCc4c(C#CC5(C(F)(F)F)CC5)cccc43)c3c(F)cncc3c21` [Example 40, 6-fluoro-1-methyl-5-(5-((1-(trifluoromethyl)cyclopropyl)ethynyl)-3,4-dihydroquinolin-1(2H)-yl)-1H-[1,2,3]triazolo[4,5-c][2,6]naphthyridine], 41.9 nM.
Turning to `Cn1nnc2nc(N(CC(F)F)c3cc(F)cc(C#CC(C)(C)O)c3)c3cc(F)ccc3c21` [Example 43, 4-(3-((2,2-difluoroethyl)(7-fluoro-1-methyl-1H-[1,2,3]triazolo[4,5-c]isoquinolin-5-yl)amino)-5-fluorophenyl)-2-methylbut-3-yn-2-ol], the IC50 is 34.1 nM.
`Cn1nnc2nc(N3CCCc4c(C#CC(C)(C)O)cccc43)c3c(F)cccc3c21` [Example 45, 4-(1-(6-fluoro-1-methyl-1H-[1,2,3]triazolo[4,5-c]isoquinolin-5-yl)-1,2,3,4-tetrahydroquinolin-5-yl)-2-methylbut-3-yn-2-ol] returned an IC50 of 19.4 nM.
Compound `Cn1nnc2nc(N(CC(F)F)c3cc(F)cc(C#CC4(C(F)(F)F)CC4)c3)c3c(F)cccc3c21` [Example 48, N-(2,2-difluoroethyl)-6-fluoro-N-(3-fluoro-5-((1-(trifluoromethyl)cyclopropyl)ethynyl)phenyl)-1-methyl-1H-[1,2,3]triazolo[4,5-c]isoquinolin-5-amine] yielded an IC50 of 64.9 nM.
`Cn1nnc2nc(N3CCCc4c(C#CC5(C(F)(F)F)CC5)cccc43)c3ccc(Cl)cc3c21` [Example 50, 8-chloro-1-methyl-5-(5-((1-(trifluoromethyl)cyclopropyl)ethynyl)-3,4-dihydroquinolin-1(2H)-yl)-1H-[1,2,3]triazolo[4,5-c]isoquinoline] gave an IC50 of 23.2 nM.
Compound `Cn1nnc2nc(N(CC(F)F)c3cc(F)cc(C#CC(C)(C)O)c3)c3ccc(Cl)cc3c21` [Example 51, 4-(3-((8-chloro-1-methyl-1H-[1,2,3]triazolo[4,5-c]isoquinolin-5-yl)(2,2-difluoroethyl)amino)-5-fluorophenyl)-2-methylbut-3-yn-2-ol] gave an IC50 of 22.5 nM.
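Further: recombinant enzyme acting on 18:1 DAG micelles (with POPS and octylglucoside) plus 200 µM ATP, 1 h at 25 °C, ADP generated read out by ADP-Glo luminescence.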
